# According to PubChem BioAssay (NCI):
# “And” between values parts separate entries of the source, which are not always exact repeats. Identical values can stand only once.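 Where inhibition never reached the appropriate level, the endpoint shown equals the highest concentration tested. Otherwise, values were interpolated linearly from a five-concentration, 48-hour dose response in 96-well plates. GI50: concentration for 50% inhibition of growth. At the TGI there is no net growth.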
# Test system: HCC-2998 colon
# Assay: NCI-60 cell line screen, 48 h
Compound,GI50,TGI
Cc1ccc(C)c(C2=C(c3cn(C)c4ccccc34)C(=O)NC2=O)c1,> 25 µM,> 25 µM
COc1cnc2c(c1)C(=O)c1c-2n(CCCNC(C)C)c(=O)c2cc(Cl)ccc12,1.37 µM,2.85 µM
COc1ccc2c(c1)CCCC(Br)C2=O (centres undefined),,> 100 µM
COc1cc(N(CCC#N)CCC#N)ccc1/C(N=Nc1ccc([N+](=O)[O-])cc1)=N/NC(=O)c1cc(Br)ccc1O,40.9 µg/mL,78.7 µg/mL
C=C1C(=O)OC2CCN3CC=C(COC(=O)C(C)(O)C4(CO4)C1C)C23 (centres undefined),,> 100 µM
CS(=O)(=O)Nc1ccc2c(c1)oc(=O)c1ccccc12,,> 100 µM

# Test system: HCT-116 colon
# Assay: NCI-60 cell line screen, 48 h
Compound,GI50,TGI
CC(C)c1ccc2c(c1)CC[C@@H]1[C@@](C)(C(=O)O)CCC[C@]21C,6.9 µM,19.8 µM
C=C1C(=O)O[C@@H]2C[C@@H]1CC/C(C)=C/CC/C(C)=C/CC[C@@]2(C)O,3.06 µM,11.9 µM
CCC(C)n1ncn(-c2ccc(N3CCN(c4ccc(OCC5COC(Cn6cncn6)(c6ccc(Cl)cc6Cl)O5)cc4)CC3)cc2)c1=O (centres undefined),21.6 µM,> 100 µM
Cc1nc2c(-c3cnc(N)nc3)nc(N3CCOCC3)nc2n1C(C)C,0.254 µM and 0.289 µM,> 100 µM
Cc1ccc(C)c(C2=C(c3cn(C)c4ccccc34)C(=O)NC2=O)c1,7.58 µM,> 25 µM
COc1cnc2c(c1)C(=O)c1c-2n(CCCNC(C)C)c(=O)c2cc(Cl)ccc12,0.138 µM,1.01 µM
COc1cc(N(CCC#N)CCC#N)ccc1/C(N=Nc1ccc([N+](=O)[O-])cc1)=N/NC(=O)c1cc(Br)ccc1O,29.9 µg/mL,91.9 µg/mL
C=C1C(=O)OC2CCN3CC=C(COC(=O)C(C)(O)C4(CO4)C1C)C23 (centres undefined),,> 100 µM
CS(=O)(=O)Nc1ccc2c(c1)oc(=O)c1ccccc12,,> 100 µM

# Test system: KM12 colon
# Assay: NCI-60 cell line screen, 48 h
Compound,GI50,TGI
CC(C)c1ccc2c(c1)CC[C@@H]1[C@@](C)(C(=O)O)CCC[C@]21C,5.44 µM,19.5 µM
C=C1C(=O)O[C@@H]2C[C@@H]1CC/C(C)=C/CC/C(C)=C/CC[C@@]2(C)O,3.31 µM,13.2 µM
CCC(C)n1ncn(-c2ccc(N3CCN(c4ccc(OCC5COC(Cn6cncn6)(c6ccc(Cl)cc6Cl)O5)cc4)CC3)cc2)c1=O (centres undefined),5.69 µM,> 100 µM
Cc1nc2c(-c3cnc(N)nc3)nc(N3CCOCC3)nc2n1C(C)C,,> 10 µM and 21.8 µM
N#Cc1c(NN)n(C2OC(CO)C(O)C2O)c2ncnc(N)c12 (centres undefined),0.0874 µM,1.72 µM
Cc1ccc(C)c(C2=C(c3cn(C)c4ccccc34)C(=O)NC2=O)c1,12.6 µM,> 25 µM
COc1cnc2c(c1)C(=O)c1c-2n(CCCNC(C)C)c(=O)c2cc(Cl)ccc12,1.09 µM,2.45 µM
COc1ccc2c(c1)CCCC(Br)C2=O (centres undefined),,12.8 µM
COc1cc(N(CCC#N)CCC#N)ccc1/C(N=Nc1ccc([N+](=O)[O-])cc1)=N/NC(=O)c1cc(Br)ccc1O,28.5 µg/mL,71 µg/mL
C=C1C(=O)OC2CCN3CC=C(COC(=O)C(C)(O)C4(CO4)C1C)C23 (centres undefined),,> 100 µM
CS(=O)(=O)Nc1ccc2c(c1)oc(=O)c1ccccc12,,> 100 µM

# Test system: TK-10 renal
# Assay: NCI-60 cell line screen, 48 h
Compound,GI50,TGI
CC(C)=CC/C=C(/C)[C@H]1CC[C@]2(C)[C@@H]1CC[C@@H]1[C@@]3(C)CCCNC(C)(C)[C@@H]3CC[C@]12C,10.6 µM,27 µM
CCC(C)n1ncn(-c2ccc(N3CCN(c4ccc(OCC5COC(Cn6cncn6)(c6ccc(Cl)cc6Cl)O5)cc4)CC3)cc2)c1=O (centres undefined),28.6 µM,> 100 µM
Cc1nc2c(-c3cnc(N)nc3)nc(N3CCOCC3)nc2n1C(C)C,,0.6 µM and 0.505 µM
N#Cc1c(NN)n(C2OC(CO)C(O)C2O)c2ncnc(N)c12 (centres undefined),0.247 µM,7.93 µM
Cc1ccc(C)c(C2=C(c3cn(C)c4ccccc34)C(=O)NC2=O)c1,> 25 µM,> 25 µM
COc1ccc2c(c1)CCCC(Br)C2=O (centres undefined),,16.8 µM
C=C1C(=O)OC2CCN3CC=C(COC(=O)C(C)(O)C4(CO4)C1C)C23 (centres undefined),,> 100 µM

# Test system: HOP-92 NSCLC
# Assay: NCI-60 cell line screen, 48 h
Compound,GI50,TGI
CC(C)c1ccc2c(c1)CC[C@@H]1[C@@](C)(C(=O)O)CCC[C@]21C,20.7 µM,76.8 µM
C=C1C(=O)O[C@@H]2C[C@@H]1CC/C(C)=C/CC/C(C)=C/CC[C@@]2(C)O,3.96 µM,19.8 µM
CC(C)=CC/C=C(/C)[C@H]1CC[C@]2(C)[C@@H]1CC[C@@H]1[C@@]3(C)CCCNC(C)(C)[C@@H]3CC[C@]12C,1.5 µM,3.58 µM
CCC(C)n1ncn(-c2ccc(N3CCN(c4ccc(OCC5COC(Cn6cncn6)(c6ccc(Cl)cc6Cl)O5)cc4)CC3)cc2)c1=O (centres undefined),0.335 µM,24.5 µM
N#Cc1c(NN)n(C2OC(CO)C(O)C2O)c2ncnc(N)c12 (centres undefined),0.142 µM,1.43 µM
COc1cnc2c(c1)C(=O)c1c-2n(CCCNC(C)C)c(=O)c2cc(Cl)ccc12,1.05 µM,2.44 µM
COc1ccc2c(c1)CCCC(Br)C2=O (centres undefined),,23.3 µM
COc1cc(N(CCC#N)CCC#N)ccc1/C(N=Nc1ccc([N+](=O)[O-])cc1)=N/NC(=O)c1cc(Br)ccc1O,79.6 µg/mL,> 150 µg/mL
C=C1C(=O)OC2CCN3CC=C(COC(=O)C(C)(O)C4(CO4)C1C)C23 (centres undefined),,> 100 µM
CS(=O)(=O)Nc1ccc2c(c1)oc(=O)c1ccccc12,,> 100 µM

# Test system: HL-60(TB) leukemia
# Assay: NCI-60 cell line screen, 48 h
Compound,GI50,TGI
CC(C)c1ccc2c(c1)CC[C@@H]1[C@@](C)(C(=O)O)CCC[C@]21C,3.4 µM,20.9 µM
C=C1C(=O)O[C@@H]2C[C@@H]1CC/C(C)=C/CC/C(C)=C/CC[C@@]2(C)O,3.04 µM,8.95 µM
CC(C)=CC/C=C(/C)[C@H]1CC[C@]2(C)[C@@H]1CC[C@@H]1[C@@]3(C)CCCNC(C)(C)[C@@H]3CC[C@]12C,1.8 µM,3.73 µM
Cc1nc2c(-c3cnc(N)nc3)nc(N3CCOCC3)nc2n1C(C)C,0.222 µM and 0.23 µM,> 5.87 µM and 20.9 µM
N#Cc1c(NN)n(C2OC(CO)C(O)C2O)c2ncnc(N)c12 (centres undefined),0.022 µM,0.109 µM
Cc1ccc(C)c(C2=C(c3cn(C)c4ccccc34)C(=O)NC2=O)c1,6.7 µM,16.2 µM
COc1cnc2c(c1)C(=O)c1c-2n(CCCNC(C)C)c(=O)c2cc(Cl)ccc12,0.3 µM,1.69 µM
COc1ccc2c(c1)CCCC(Br)C2=O (centres undefined),,16.9 µM
COc1cc(N(CCC#N)CCC#N)ccc1/C(N=Nc1ccc([N+](=O)[O-])cc1)=N/NC(=O)c1cc(Br)ccc1O,49.2 µg/mL,> 150 µg/mL
CS(=O)(=O)Nc1ccc2c(c1)oc(=O)c1ccccc12,,> 100 µM
